Data taken from PubChem BioAssay AID395 (SGCOxCompounds, 2006).

Target: Serine/threonine-protein kinase 16 (Homo sapiens) (UniProt O75716)
Assay: STK16 binders by thermal stabilization, biophysical, recombinant human kinase, DSF (AID 395)
Conditions: SYPRO orange, at 10 µM, protein 2 µM, buffer 10 mM HEPES, active compounds read high

Sequence of Serine/threonine-protein kinase 16 (Homo sapiens) (O75716 whole entry, looked up): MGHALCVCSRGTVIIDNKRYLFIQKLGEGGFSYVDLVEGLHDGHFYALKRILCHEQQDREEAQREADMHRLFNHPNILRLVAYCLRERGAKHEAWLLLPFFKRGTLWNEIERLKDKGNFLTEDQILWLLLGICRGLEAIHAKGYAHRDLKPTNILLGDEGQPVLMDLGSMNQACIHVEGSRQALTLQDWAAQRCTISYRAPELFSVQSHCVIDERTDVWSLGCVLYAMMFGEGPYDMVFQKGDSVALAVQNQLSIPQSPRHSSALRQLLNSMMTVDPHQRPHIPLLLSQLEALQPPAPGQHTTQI

| SMILES | Tm shift [°C] |
| --- | --- |
| c1csc(-c2cnc3ccc(NCC4CC4)nn23)c1 | 4.3 |
| O=c1c(O)c(-c2ccc(O)c(O)c2)oc2cc(O)cc(O)c12 | 4.78 |
| Clc1cccc(Nc2ccn3ncc(-c4cccnc4)c3n2)c1 | 5.48 |
| O=C1c2ccccc2-c2n[nH]c3cccc1c23 | 6.85 |
| O=Nc1c(-c2c(O)[nH]c3ccccc23)[nH]c2ccccc12 | 5.13 |
| CC(C)(C)c1nc2c3cc[nH]c(=O)c3c3cc(F)ccc3c2[nH]1 | 3.46 |
| Fc1ccc(CNc2ccc3ncc(-c4ccco4)n3n2)cc1 | 4.18 |
| COC(=O)c1cnc2oc3ccc(O)cc3c2c1-c1ccccc1 | 5.35 |
| O=C1Nc2ccccc2/C1=C\c1cnc[nH]1 | 7.49 |
| CC1N=C2SC=CN2C(=O)C1CCN1CCC(=C(c2ccccc2)c2ccc(F)cc2)CC1 (stereo unspecified) | 3.67 |
| c1ccc(-c2cnc3ccc(NCc4cccs4)nn23)cc1 | 3.62 |
| Clc1cccc(-c2cnc3ccc(NC4CCOCC4)nn23)c1 | 4 |
| CC(C)C(CO)Nc1nc(Nc2cccc(Cl)c2)c2ncn(C(C)C)c2n1 (stereo unspecified) | 3.15 |
| O=c1cc(-c2ccc(O)cc2)oc2cc(O)cc(O)c12 | 4.78 |
| Clc1cccc(Nc2ccn3ncc(-c4ccsc4)c3n2)c1 | 3.69 |
| COc1ccc2c(c1)/C(=C/c1cnc[nH]1)C(=O)N2 | 4.35 |
| Cc1cc(C=C2C(=O)C=CC2=O)cc(C)c1O | 3.24 |
| O=c1[nH]c2ncc(-c3cccnc3)nc2n1C1CCCC1 | 5.29 |
| O=C1Nc2ccccc2/C1=C/c1ccc[nH]1 | 4.28 |
| Clc1ccc(-c2cnn3ccc(NCc4cccnc4)nc23)cc1 | 3.85 |
| Nc1ncnc2c1c(I)cn2[C@@H]1O[C@H](CO)C(O)C1O (stereo partly specified) | 3.88 |

Same assay, conditions: SYPRO orange, at 10 µM, protein 2 µM, buffer 10 mM HEPES, pH 7.5, NaCl 150 mM, active compounds read high

| SMILES | Tm shift [°C] |
| --- | --- |
| Cc1cc(Nc2nc(-c3ccccc3)nc3ccccc23)n[nH]1 | 11.1 |
| O=c1c(O)c(-c2ccc(O)c(O)c2)oc2cc(O)ccc12 | 8.54 |
| O=c1c(O)c(-c2ccc(O)c(O)c2)oc2cc(O)cc(O)c12 | 4.75 |
| O=Nc1c(-c2c(O)[nH]c3ccc(S(O)(O)O)cc23)[nH]c2ccccc12 | 5.7 |
| O=c1cc(-c2ccc(O)c(O)c2)oc2cc(O)cc(O)c12 | 4.82 |
| O=C1NCc2c1c1c3ccccc3[nH]c1c1[nH]c3ccccc3c21 | 3.9 |
| Cn1cc(/C=C2\C(=O)Nc3ccc(S(N)(=O)=O)cc32)c2ccccc21 | 4.8 |
| NC(=O)Nc1sc(-c2ccccc2)cc1C(N)=O | 4.5 |
| O=C(Nc1cccc(Nc2nccc(Nc3cccc(C(F)(F)F)c3)n2)c1)C1CC1 | 5.75 |
| O=C1NC(=O)C(c2c[nH]c3ccccc23)=C1c1c[nH]c2ccccc12 | 3.4 |
| O=c1[nH]c(O)c2c1c1c3ccccc3nc1n1cncc21 | 5.4 |
| N=C(N)SCCCn1cc(C2=C(c3c[nH]c4ccccc34)C(=O)NC2=O)c2ccccc21 | 4.3 |
| OCC(O)CCO/N=C1/C(c2c(O)[nH]c3ccccc23)=Nc2ccccc21 (stereo unspecified) | 11.7 |
| O=c1cc(-c2ccccc2)oc2cc(O)cc(O)c12 | 5.74 |
| O=Nc1c(-c2c(O)[nH]c3ccc(I)cc23)[nH]c2ccccc12 | 4.2 |
| Nc1cccc(-c2cc3c(Oc4cccc(O)c4)ncnc3[nH]2)c1 | 5.9 |
| CC(C)c1nn(-c2c(Cl)cccc2Cl)c2nc(Cc3ccc(OCCO)cc3)[nH]c(=O)c12 | 3.5 |
| CCN(CC)CCNC(=O)c1c(C)[nH]c(/C=C2\C(=O)Nc3ccc(Cl)cc32)c1C | 6 |
| CC1N=C2SC=CN2C(=O)C1CCN1CCC(=C(c2ccccc2)c2ccc(F)cc2)CC1 (stereo unspecified) | 3.2 |
| NCCCn1cc(C2=C(c3c[nH]c4ccccc34)C(=O)NC2=O)c2ccccc21 | 4.96 |
| CC(O)O/N=C1/C(c2c(O)[nH]c3cc(Br)ccc23)=Nc2ccccc21 (stereo unspecified) | 4.2 |
| O=C(c1ccc(Nc2nccc(-c3cc4ccccc4s3)n2)cc1)N1CCC(N2CCCC2)CC1 | 8.9 |
| COc1cc(C2Oc3cc(O)cc(O)c3C(=O)C2=O)ccc1O (stereo unspecified) | 3.97 |
| O=C1C(=O)C(c2cccc(O)c2)Oc2ccccc21 (stereo unspecified) | 4.41 |
| Nc1nc(Nc2ccc(S(N)(=O)=O)cc2)nn1C(=S)Nc1c(F)cccc1F | 7.8 |
| N#C/C(=C1\Nc2ccccc2S1)c1ccnc(NCCc2cccnc2)n1 | 5.5 |
| NS(=O)(=O)c1ccc(Nc2nc(OCC3CCCCC3)c3[nH]cnc3n2)cc1 | 4.1 |
| Cc1c(O)cc(O)c2c1OC(c1ccc(O)c(O)c1)C(=O)C2=O (stereo unspecified) | 3.29 |
| O=c1c(O)c(-c2ccc(O)cc2)oc2cc(O)cc(O)c12 | 3.87 |
| Cc1nc(N)sc1-c1ccnc(Nc2cccc(-n3oo3)c2)n1 | 10.7 |
